Source: US12492188B2, “1H-benzo[D]imidazole derivatives as TLR9 inhibitors for the treatment of fibrosis” (BRISTOL-MYERS SQUIBB COMPANY, priority 2020, dated 2025)
Where two headings read alike, the source gives them in different places.

Experiments:
Type in all cases: cell-based
human TLR7 = molecular target: T1, human TLR7 (Homo sapiens, UniProt Q9NYK1); test: TLR7 inhibition reporter assay (HEK-Blue cells, secreted embryonic alkaline phosphatase reporter); settings: HEK-Blue cells overexpressing human TLR7, stimulated with gardiquimod 7.5 μM; read-out: TLR 7 IC50
T1 construct: host or cells: HEK-Blue cells (HEK293-derived reporter line)
T1 sequence (Q9NYK1 27-1049): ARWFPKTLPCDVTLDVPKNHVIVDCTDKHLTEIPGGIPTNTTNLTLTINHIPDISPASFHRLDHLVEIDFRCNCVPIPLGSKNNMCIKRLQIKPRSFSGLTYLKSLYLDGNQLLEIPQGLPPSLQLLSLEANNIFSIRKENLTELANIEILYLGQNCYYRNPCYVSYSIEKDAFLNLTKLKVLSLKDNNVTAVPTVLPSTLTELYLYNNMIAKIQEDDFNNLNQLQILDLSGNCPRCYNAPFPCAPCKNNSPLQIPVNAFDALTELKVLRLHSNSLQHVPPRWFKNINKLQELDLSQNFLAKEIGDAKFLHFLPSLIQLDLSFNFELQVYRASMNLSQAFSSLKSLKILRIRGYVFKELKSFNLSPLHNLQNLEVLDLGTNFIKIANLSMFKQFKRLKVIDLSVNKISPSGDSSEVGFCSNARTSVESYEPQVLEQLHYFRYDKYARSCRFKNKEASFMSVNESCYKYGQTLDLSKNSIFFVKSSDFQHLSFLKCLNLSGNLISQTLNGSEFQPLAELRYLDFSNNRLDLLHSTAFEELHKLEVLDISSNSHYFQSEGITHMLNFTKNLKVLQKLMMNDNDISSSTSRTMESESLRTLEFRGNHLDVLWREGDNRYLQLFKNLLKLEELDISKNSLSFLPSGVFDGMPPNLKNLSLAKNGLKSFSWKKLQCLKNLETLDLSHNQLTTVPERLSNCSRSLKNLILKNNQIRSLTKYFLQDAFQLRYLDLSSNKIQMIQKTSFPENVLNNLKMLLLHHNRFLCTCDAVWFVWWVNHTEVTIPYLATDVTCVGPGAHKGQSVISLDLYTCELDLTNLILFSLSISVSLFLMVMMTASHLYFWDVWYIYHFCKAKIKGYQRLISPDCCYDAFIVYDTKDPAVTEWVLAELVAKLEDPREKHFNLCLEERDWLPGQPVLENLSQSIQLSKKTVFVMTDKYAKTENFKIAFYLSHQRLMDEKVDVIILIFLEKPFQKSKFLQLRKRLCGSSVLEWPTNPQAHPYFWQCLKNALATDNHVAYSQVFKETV
Outline: (§1)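 Inhibitors are tested in dose response (0.05 nM–50 μM) on HEK-Blue reporter cells expressing human TLR7, TLR8 or TLR9. After 30 min at room temperature, each line is stimulated with its own agonist (gardiquimod 7.5 μM, R848 15.9 μM or ODN2006 5 nM, final) and SEAP is measured 22 h later.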

human TLR8 = molecular target: T2, human TLR8 (Homo sapiens, UniProt Q9NR97); test: TLR8 inhibition reporter assay (HEK-Blue cells, secreted embryonic alkaline phosphatase reporter); settings: HEK-Blue cells overexpressing human TLR8, stimulated with R848 15.9 μM; read-out: TLR 8 IC50
T2 construct: host or cells: HEK-Blue cells (HEK293-derived reporter line)
T2 sequence (Q9NR97 27-1041): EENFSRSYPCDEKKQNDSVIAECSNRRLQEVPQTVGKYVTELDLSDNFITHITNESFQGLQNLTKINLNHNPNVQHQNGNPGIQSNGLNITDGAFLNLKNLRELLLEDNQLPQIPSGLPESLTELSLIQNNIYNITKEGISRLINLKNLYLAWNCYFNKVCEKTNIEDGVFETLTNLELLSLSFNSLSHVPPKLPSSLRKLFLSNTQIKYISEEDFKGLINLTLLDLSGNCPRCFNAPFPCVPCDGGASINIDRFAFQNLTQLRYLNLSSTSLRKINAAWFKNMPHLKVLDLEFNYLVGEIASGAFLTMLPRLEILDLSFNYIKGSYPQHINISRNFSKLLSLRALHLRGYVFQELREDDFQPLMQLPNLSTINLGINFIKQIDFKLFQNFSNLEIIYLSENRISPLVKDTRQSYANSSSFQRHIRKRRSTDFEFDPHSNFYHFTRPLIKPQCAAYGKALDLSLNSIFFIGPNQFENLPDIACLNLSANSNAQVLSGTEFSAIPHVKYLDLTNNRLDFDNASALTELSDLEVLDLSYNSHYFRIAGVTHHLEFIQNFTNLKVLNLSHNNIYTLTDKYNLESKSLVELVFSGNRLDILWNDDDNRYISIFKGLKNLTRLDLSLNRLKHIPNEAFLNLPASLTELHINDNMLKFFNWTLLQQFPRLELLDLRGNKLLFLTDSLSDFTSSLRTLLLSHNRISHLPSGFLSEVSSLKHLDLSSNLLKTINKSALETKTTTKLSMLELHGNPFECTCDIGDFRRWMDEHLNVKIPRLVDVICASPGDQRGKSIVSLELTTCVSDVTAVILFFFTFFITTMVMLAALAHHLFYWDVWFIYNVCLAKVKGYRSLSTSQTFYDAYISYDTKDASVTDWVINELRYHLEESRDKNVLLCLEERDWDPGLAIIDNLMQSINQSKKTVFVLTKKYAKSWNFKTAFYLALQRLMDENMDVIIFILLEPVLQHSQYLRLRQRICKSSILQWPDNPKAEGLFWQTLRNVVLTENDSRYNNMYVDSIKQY
Experimental: TLR7/8/9 Inhibition Reporter Assays
HEK-Blue™-cells (Invivogen) overexpressing human TLR7, TLR8 or TLR9 receptors were used for screening inhibitors of these receptors using an inducible SLAP (secreted embryonic alkaline phosphatase) reporter gene under the control of the […] minimal promoter fused to five NF-κB and AP-1-binding sites. Briefly, cells are seeded into Greiner 384 well plates (15000 cells per well for TLR7, 20,000 for TLR8 and 25,000 for TLR9) and then treated with test compounds in DMSO to yield a final dose response concentration range of 0.05 nM-50 μM. After a 30 minute compound pre-treatment at room temperature, the cells are then stimulated with a TLR7 ligand (gardiquimod at a final concentration of 7.5 μM), TLR8 ligand (R848 at a final concentration of 15.9 μM) or TLR9 ligand (ODN2006 at a final concentration of 5 nM) to activate NF-κB and AP-1 which induce the production of SLAP. After a 22 hour incubation at 37° C., […], SLAP levels are determined with the addition of HEK-Blue™ Detection reagent (Invivogen), a cell culture medium that allows for detection of SLAP, according to manufacturer's specifications. The percent inhibition is determined as the […] in the HEK-Blue signal present in wells treated with agonist plus DMSO alone compared to wells treated with a known inhibitor.

human TLR9 = molecular target: T3, human TLR9 (Homo sapiens, UniProt Q9NR96); test: TLR9 inhibition reporter assay (HEK-Blue cells, secreted embryonic alkaline phosphatase reporter)
T3 construct: host or cells: HEK-Blue cells (HEK293-derived reporter line)
T3 sequence (Q9NR96 26-1032): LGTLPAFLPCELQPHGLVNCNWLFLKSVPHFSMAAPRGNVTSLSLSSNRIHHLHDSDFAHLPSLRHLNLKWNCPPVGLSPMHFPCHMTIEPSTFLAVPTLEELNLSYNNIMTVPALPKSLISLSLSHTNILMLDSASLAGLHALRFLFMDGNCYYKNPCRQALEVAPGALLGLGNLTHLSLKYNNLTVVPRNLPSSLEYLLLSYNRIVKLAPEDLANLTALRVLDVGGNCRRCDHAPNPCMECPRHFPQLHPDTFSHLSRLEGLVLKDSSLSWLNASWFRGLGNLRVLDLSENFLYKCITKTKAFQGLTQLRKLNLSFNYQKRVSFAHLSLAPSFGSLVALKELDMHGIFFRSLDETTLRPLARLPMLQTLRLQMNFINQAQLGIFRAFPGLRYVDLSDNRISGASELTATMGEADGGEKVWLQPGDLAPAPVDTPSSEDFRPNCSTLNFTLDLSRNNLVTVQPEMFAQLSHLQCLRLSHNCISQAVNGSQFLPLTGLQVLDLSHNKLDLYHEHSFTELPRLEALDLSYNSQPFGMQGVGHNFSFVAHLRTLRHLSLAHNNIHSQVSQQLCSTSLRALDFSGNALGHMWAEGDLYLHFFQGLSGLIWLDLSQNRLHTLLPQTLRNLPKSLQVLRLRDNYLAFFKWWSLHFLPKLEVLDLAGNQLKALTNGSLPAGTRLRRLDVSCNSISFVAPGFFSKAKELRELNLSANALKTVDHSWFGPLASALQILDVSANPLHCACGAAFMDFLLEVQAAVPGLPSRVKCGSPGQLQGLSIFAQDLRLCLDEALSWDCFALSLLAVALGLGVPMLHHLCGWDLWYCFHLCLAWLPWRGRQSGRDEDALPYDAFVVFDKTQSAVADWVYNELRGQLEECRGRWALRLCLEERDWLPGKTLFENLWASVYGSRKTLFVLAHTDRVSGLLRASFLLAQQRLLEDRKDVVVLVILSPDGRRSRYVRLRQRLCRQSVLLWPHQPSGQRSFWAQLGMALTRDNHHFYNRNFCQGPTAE
Outline: as §1

[1] = HEK-Blue cells overexpressing human TLR9, stimulated with ODN2006 5 nM, 22 hour incubation, reporter readout
[2] = HEK-Blue cells overexpressing human TLR9, stimulated with ODN2006 5 nM, read-out: TLR 9 IC50
[3] = HEK-Blue human TLR9 reporter cells

IC50 (human TLR7) [µM]	IC50 (human TLR8) [µM]	IC50 (human TLR9; [1]) [µM]	IC50 (human TLR9; [2]) [µM]	IC50 (human TLR9) [µM]	IC50 (human TLR9; [3]) [µM]	SMILES
12.6	> 25		0.156		0.16	Cc1cc(C2CCN(C3CCN(CC(C)C)CC3)CC2)cc2c1nc(-c1ccc(S(C)(=O)=O)c(F)c1)n2C [Example 343, 2-(3-fluoro-4-(methylsulfonyl)phenyl)-6-(1′-isobutyl-[1,4′-bipiperidin]-4-yl)-1,4-dimethyl-1H-benzo[d]imidazole]
12.7	> 25		0.343		0.34	Cc1cc(C2CCN(C3CCN(C4CC4)CC3)CC2)cc2c1nc(-c1ccc(S(C)(=O)=O)c(F)c1)n2C [Example 339, 6-(1′-cyclopropyl-[1,4′-bipiperidin]-4-yl)-2-(3-fluoro-4-(methylsulfonyl)phenyl)-1,4-dimethyl-1H-benzo[d]imidazole]
1.4	> 50		0.012		0.012	CC(C)CN1C2CCC1CC(N1CCC(c3cc(F)c4nc(-c5ccc(S(C)(=O)=O)cc5)n(C5CC5)c4c3)CC1)C2 (single isomer, unassigned) [Example 322, 1-cyclopropyl-4-fluoro-6-(1-(8-isobutyl-8-azabicyclo[3.2.1]octan-3-yl)piperidin-4-yl)-2-(4-(methylsulfonyl)phenyl)-1H-benzo[d]imidazole]

The next lines start with the compound.

SMILES	IC50 (human TLR7) [µM]	IC50 (human TLR8) [µM]	IC50 (human TLR9; [1]) [µM]	IC50 (human TLR9; [2]) [µM]	IC50 (human TLR9) [µM]	IC50 (human TLR9; [3]) [µM]
Cc1cc(C2CCN(C3CCN(C(C)C)CC3)CC2)cc2c1nc(-c1ccc(S(N)(=O)=O)cc1)n2C [Example 112, 4-(6-(1′-isopropyl-[1,4′-bipiperidin]-4-yl)-1,4-dimethyl-1H-benzo[d]imidazol-2-yl)benzenesulfonamide]	> 50	> 50	0.13	0.127		
CC(C)CN1CCC(N2CCC(c3cc(F)c4c(c3)nc(-c3ccc(S(C)(=O)=O)cc3)n4C)CC2)CC1 [Example 201, 7-fluoro-5-(1′-isobutyl-[1,4′-bipiperidin]-4-yl)-1-methyl-2-(4-(methylsulfonyl)phenyl)-1H-benzo[d]imidazole]	14.4	> 50		0.097	0.097	
Cn1c(-c2ccc(S(C)(=O)=O)cc2)nc2cc(F)c(C3CCN(C4CC5CCC(C4)N5CC4CC4)CC3)cc21 (centres unmarked) [Example 231, 6-(1-(8-(cyclopropylmethyl)-8-azabicyclo[3.2.1]octan-3-yl)piperidin-4-yl)-5-fluoro-1-methyl-2-(4-(methylsulfonyl)phenyl)-1H-benzo[d]imidazole]	> 50	> 50		0.058	0.058	
COc1ccc(-c2nc3ccc(C4CCN(C5CCN(C(C)C)CC5)CC4)cc3[nH]2)cc1OC [Example 2, 2-(3,4-dimethoxyphenyl)-6-(1′-isopropyl-[1,4′-bipiperidin]-4-yl)-1H-benzo[d]imidazole]	16	> 50	0.12	0.123		
Cn1c(-c2ccc(S(C)(=O)=O)cc2)nc2c(F)cc(C3CCN(C4CC5CCC(C4)N5C4COC4)CC3)cc21 (centres unmarked) [Example 286, 4-fluoro-1-methyl-2-(4-(methylsulfonyl)phenyl)-6-(1-(8-(oxetan-3-yl)-8-azabicyclo[3.2.1]octan-3-yl)piperidin-4-yl)-1H-benzo[d]imidazole]	29	> 50		0.041		0.041
CC(C)CN1C2CCC1CC(N1CCC(c3cc(F)c4c(c3)nc(-c3ccc(S(C)(=O)=O)cc3)n4C)CC1)C2 (centres unmarked) [Example 210, 7-fluoro-5-(1-(8-isobutyl-8-azabicyclo[3.2.1]octan-3-yl)piperidin-4-yl)-1-methyl-2-(4-(methylsulfonyl)phenyl)-1H-benzo[d]imidazole]	> 50	> 50			0.12	
